# Results as given in PMC1084349 (BMC Neuroscience, 2005).
# Counter-ions that a name gives are not always drawn. Like-named read-outs stand apart in the source and are kept apart here.
# Tests used:
# sweet taste [1] = test system: sweet taste; set-up: method as in PMID 11917125, PMID 7812727, PMID 12379598, PMID 10480680; details: humans; cited from earlier work
# sweet taste [2] = test system: sweet taste; set-up: method as in PMID 11917125, PMID 7812727, PMID 12379598, PMID 10480680; details: rats; cited from earlier work
# [3] = test system: hTAS1R2 and tas1r3-hN-rTM; test: Calcium mobilization (FLIPR), chimera with human N-terminus and rat transmembrane region; type: cell-based
# From the text: The receptor chimeras of Tas1r3 were constructed using recombinant PCR. In the first reactions the N-terminal and the C-terminal part containing the seven transmembrane domains of hTAS1R3 and rTas1r3 were amplified from plasmid DNA using Ultra Pfu Polymerase (Stratagene). For the hTAS1R3 and rTas1r3 N-termini the forward vector-anchored primer (CMV: […]) and a reverse gene specific primer ([…]) were used. The hTAS1R3 and rTas1r3 C-terminal part were amplified with forward gene specific primer ([…]) and a reverse vector-anchored primer ([…]). PCR conditions were: 5 min, 94°C, 24 cycles 1 min 94°C, 0.5 min 64°C, 2 min 72°C; 5 min 72°C. The amplicons were purified using the Highpure PCR Product Purification Kit (Roche) and used as template for the second PCR. To create the chimeric receptor tas1r3-hN-rTM, equimolar amounts (~50 ng) of the hTAS1R3 N-terminus and rTas1r3 transmembrane domains were combined without additional oligonucleotides. PCR conditions were: 5 min 94°C; 15 cycles of 2 min 64°C, 2 min 72°C and 0.5 min 94°C; followed by 5 min 64°C and 10 min 72°C. […] These chimeras were cloned into pcDNA5/FRT.
# (§1) The cDNAs were transiently transfected into HEK293T cells stably expressing the chimeric G-protein subunit Gα16gust44 [20] using Lipofectamine 2000 (Invitrogen) according to the manufacturer's protocol. 3–4 hours after transfection, DMEM was replaced by low-glucose DMEM supplemented with GlutaMAX and 10% dialyzed FBS (Invitrogen). 22–44 hours later, cells were loaded for 1 hour with the calcium sensitive dye Fluo4-AM (2 μg/ml in DMEM, Molecular Probes). Cells were washed 3x in solution C1 (130 mM NaCl, 5 mM KCl, 10 mM Hepes, 2 mM CaCl2, and 5 mM Glucose, pH 7,4). Calcium mobilization was monitored by an automated fluorometric imaging plate reader (FLIPR, Molecular Devices). Ligands (Sigma-Aldrich, Merck) were dissolved in C1 solution. All data were collected from at least two independent experiments carried out in triplicate. The obtained calcium signals were corrected for the response of mock transfected cells and normalized to the fluorescence of cells prior to the stimulus using ΔF/F=(F-F0)/F0. […]
# All sweeteners were used at concentrations which were close to the maximal obtainable signal. (c) Alignment of amino acid sequences of the human, rat, and mouse Tas1r3 transmembrane regions. Color code: white, identical; grey, conservative; dark-grey, similar; black, non-similar. TM, predicted transmembrane domain, indicated by a black bar. Dots indicate the location of the primer used to generate the chimeric rat-human Tas1r3 receptors. Asterisks denote amino acid positions that are identical in rat and mouse but variable between humans and rodents and are located in the extracellular loops or the upper part of the transmembran regions. Boxes indicate the several rTas1r3 mutants m1 – m7, including the amino acid substitutions. m6/1 – m6/3 signified the reconverted amino acid of mutant m6.
# [4] = test system: rTas1r2 and rTas1r3 mutants m1 – m7 other than m6; test: Calcium mobilization (FLIPR), other rTas1r3 mutants (m1-m5, m7); type: cell-based, rat; details: stimulation with 1 mM stevioside; 1.0 mM lactisole
# From the text: Receptor mutants were generated by site directed mutagenesis according to the QuikChange protocol (Stratagene). The forward and reverse complement primers contained the desired mutations and annealed to the same sequence on opposite strands of the plasmids. The following rTas1r3 receptor variants were generated: m1: S576L; m2: R632Q, S635P, S637Q; m3: M644L A645S; m4: A702T; m5: Q717H, V718M, V723A, E725V; m6: L735F, V738A, I740A. m6/1: V738A, I740A, m6/2: L735F, I740A, m6/3: L735F, V738A. m7: A793V, Y794L, Q795R. Subsequently a rTas1r3-V738A variant was generated. All constructs were checked by sequencing.
# as §1, with “Cells were washed 3x in solution C1 (130 mM NaCl, 5 mM KCl, 10 mM Hepes, 2 mM CaCl2, and 5 mM Glucose, pH 7,4).” left out, “Ligands (Sigma-Aldrich, Merck) were dissolved in C1 solution. All data were collected from at least two independent experiments carried out in triplicate.” left out
# hTAS1R2-hTAS1R3 = target: T1, hTAS1R2-hTAS1R3 (Homo sapiens, UniProt Q7RTX0+Q8TE23); test: Calcium mobilization (FLIPR) in transfected HEK293T-Gα16gust44 cells, human sweet receptor; details: asp 15 mM; cyc 30 mM; neo 0.1 mM; sac 10 mM; suc 100 mM; stev 1 mM
# T1 sequence (Q8TE23 20-839): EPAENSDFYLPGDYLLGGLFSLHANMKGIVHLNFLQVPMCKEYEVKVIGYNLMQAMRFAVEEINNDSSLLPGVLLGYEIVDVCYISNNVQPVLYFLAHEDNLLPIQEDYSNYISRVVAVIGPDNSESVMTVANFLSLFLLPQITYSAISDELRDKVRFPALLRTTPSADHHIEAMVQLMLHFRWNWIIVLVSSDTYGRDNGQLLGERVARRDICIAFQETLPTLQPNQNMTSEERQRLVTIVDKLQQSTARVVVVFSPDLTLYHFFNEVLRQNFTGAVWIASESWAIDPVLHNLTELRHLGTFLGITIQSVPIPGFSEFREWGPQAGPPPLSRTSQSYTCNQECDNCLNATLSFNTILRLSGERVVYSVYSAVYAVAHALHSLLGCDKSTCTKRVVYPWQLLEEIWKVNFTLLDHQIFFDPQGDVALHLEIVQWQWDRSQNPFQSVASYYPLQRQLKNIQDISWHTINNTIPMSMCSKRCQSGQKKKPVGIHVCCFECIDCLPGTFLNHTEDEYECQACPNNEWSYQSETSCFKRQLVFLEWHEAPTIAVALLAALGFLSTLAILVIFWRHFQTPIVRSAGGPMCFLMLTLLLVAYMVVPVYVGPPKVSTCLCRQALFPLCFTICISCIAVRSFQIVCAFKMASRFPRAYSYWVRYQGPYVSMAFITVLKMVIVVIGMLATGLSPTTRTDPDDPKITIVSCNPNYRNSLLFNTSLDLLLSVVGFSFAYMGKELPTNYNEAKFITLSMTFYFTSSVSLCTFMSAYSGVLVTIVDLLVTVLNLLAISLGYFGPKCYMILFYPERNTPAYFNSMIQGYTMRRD
# T1 sequence (Q7RTX0 21-852): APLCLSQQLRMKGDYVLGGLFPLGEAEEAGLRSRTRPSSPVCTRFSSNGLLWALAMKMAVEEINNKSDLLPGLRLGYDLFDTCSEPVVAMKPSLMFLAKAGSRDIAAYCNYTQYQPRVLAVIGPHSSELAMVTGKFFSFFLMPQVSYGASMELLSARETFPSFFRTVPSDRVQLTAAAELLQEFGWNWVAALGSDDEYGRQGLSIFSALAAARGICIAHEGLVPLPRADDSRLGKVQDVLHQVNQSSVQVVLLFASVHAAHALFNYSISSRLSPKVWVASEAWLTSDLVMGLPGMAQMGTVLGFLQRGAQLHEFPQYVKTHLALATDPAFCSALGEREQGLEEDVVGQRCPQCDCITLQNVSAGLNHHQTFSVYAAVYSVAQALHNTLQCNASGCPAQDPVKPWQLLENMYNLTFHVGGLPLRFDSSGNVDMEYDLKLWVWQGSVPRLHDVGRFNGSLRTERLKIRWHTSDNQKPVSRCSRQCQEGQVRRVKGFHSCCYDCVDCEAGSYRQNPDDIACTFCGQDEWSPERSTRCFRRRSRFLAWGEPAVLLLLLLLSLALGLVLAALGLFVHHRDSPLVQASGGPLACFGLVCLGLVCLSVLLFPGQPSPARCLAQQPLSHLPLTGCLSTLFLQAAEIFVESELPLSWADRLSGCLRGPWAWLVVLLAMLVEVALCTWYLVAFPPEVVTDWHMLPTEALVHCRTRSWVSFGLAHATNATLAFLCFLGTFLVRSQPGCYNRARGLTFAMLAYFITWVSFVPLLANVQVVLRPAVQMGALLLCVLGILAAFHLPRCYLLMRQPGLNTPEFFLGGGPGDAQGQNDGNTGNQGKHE
# [5] = test system: human TAS1R2-TAS1R3 heteromer; details: cited from earlier work
compound,measurement,setting,value
"COc1ccc(OC(C)C(=O)O)cc1 (stereo not drawn) [lactisole, 2-(4-methoxphenoxy) propanoic acid sodium salt]",suppression of the sweet taste of various compounds,sweet taste [1],suppresses the sweet taste
same,suppression of the sweet taste of various compounds,sweet taste [2],not in rats
same,lactisole sensitivity of agonist responses,"[3]; 1.0 mM lactisole, all four agonists",lactisole insensitive
same,lactisole sensitivity conferred to the heteromer,[4],did not
O=C1NS(=O)(=O)c2ccccc21 [saccharin],activation of receptor (calcium response),hTAS1R2-hTAS1R3,elevated intracellular calcium levels
same,activation of receptor (calcium response),"[3]; asp 15 mM, cyc 30 mM, neo 0.1 mM, sac 10 mM, suc 100 mM, stev 1 mM",responded
"brazzein: sweet protein (QDKCKKVYENYPVSKCQLANQCNYDCKLDKHARSGECFYDEKRNLQCICDYCEY; UniProt P56552 1-54, looked up)",activation of heteromer,[5],only activate the human
monellin,activation of heteromer,[5],only activate the human
thaumatin,activation of heteromer,[5],only activate the human
